Data published in patent US12552783B2, “Modulators of proteolysis and associated methods of use” (Arvinas Operations, Inc., priority 2018, dated 2026).
One block for each compound: values may come before it.

What was measured:
Type in all cases: cell-based
KRas [1] = biological target: T1, KRas (Homo sapiens, UniProt P01116, G12C); assay: KRas degradation in H2030 cells by Western blot (data of Table 5); set-up: host or cells: NCI-H2030; conditions: H2030 cells serum starved 24 hours, KRas immunoblot; for H2030 Degradation at 0.3 uM: treated 24 hours with 0.3 uM; for H2030 Degradation at 1 uM: treated 24 hours with 1 uM; for H2030 Degradation at 3 uM: treated 24 hours with 3 uM
Procedure: Cell Lines, Antibodies, and Reagents. NCI-H2030 (CRL-5914) and SW1573 (CRL-2170) cells were purchased from ATCC. Both cell lines are homozygous for the G12C mutation in KRas. NCI-H2030 cells were cultured in RPMI-1640 medium containing 1% penicillin-streptomycin and 10% fetal bovine serum (FBS). SW1573 cells were cultured in DMEM containing 1% penicillin-streptomycin and 10% FBS. The KRas detection antibody (Cat. No. LS-C175665) was purchased from LifeSpan Biosciences and was used at a dilution of 1:2000. GAPDH was detected using an antibody purchased from Cell Signaling Technology (Cat. No. 5174) and was diluted 1:3000. Secondary anti-mouse and anti-rabbit detection antibodies were purchased from Cell Signaling Technology (Cat. Nos. 7076 and 7074, respectively).
Compound Treatment and Western Blotting of the Data of Table 5. H2030 cells in 12-well plates were serum starved for 24 hours, and then treated with 0.3 uM, 1 uM, and 3 uM of the indicated bifunctional compound, for 24 hours. Cells were lysed in a Cell Signaling Technology Cell Lysis Buffer (Cat. No. #9803) supplemented with protease inhibitors, and proteins were separated by SDS-PAGE. KRas was detected by immunoblotting using the LSBio antibody (Cat. No. LS-C175665).
DC50 is the half-maximal degradation concentration—i.e., the concentration at which 50% degradation is observed. DMax is the maximum degradation efficacy is achieved—i.e., the maximal degradation observed) degradation data.

KRas [2] = biological target: T1, KRas; assay: KRas degradation in SW1573 cells by Western blot, normalized to GAPDH (data of Table 14)
Outline: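 SW1573 cells, homozygous for the KRas G12C mutation and maintained in DMEM with 10% FBS and 1% penicillin-streptomycin, were seeded in 12-well plates, allowed to attach overnight at 37° C. under 5% CO2, then serum-starved for 24 hours before compound exposure. KRas levels were measured by Western blot, normalized to GAPDH, and compared with DMSO controls to give percent degradation, DC50 and Dmax.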

KRas^G12C [3] = biological target: T2, KRas^G12C (Homo sapiens, UniProt P01116, G12C); assay: Western blot of KRas G12C degradation and gel shift (FIGS. 2A and 2B); conditions: for covalent modification of KRas^G12C, as seen by the gel shift: Western blot gel shift, FIGS. 2A and 2B; for degrader potency shown by Western blot: FIG. 2A / FIG. 2B
T2 construct: endogenous in cells

KRas [4] = biological target: T1, KRas; assay: KRas degradation in NCI-H2030 cells by Western blot, normalized to GAPDH (data of Table 14); set-up: host or cells: NCI-H2030
Outline: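 Both lines are homozygous for KRas G12C and were serum-starved for 24 h before treatment with compound at 0.3, 1 or 3 μM in 0.1% DMSO: 24 h for VHL-based compounds, 72 h for the rest. Western blot of 10 μg lysate gave KRas signal normalized to GAPDH, and percent degradation was expressed relative to the DMSO control.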

KRas^G12C [5] = biological target: T2, KRas^G12C; assay: Western blot mobility shift of KRas after treating cells with bifunctional compound (FIGS. 2A and 2B); conditions: for KRas degrader activity (representative Western blot): FIG. 2A / FIG. 2B; for covalent modification of KRas seen by gel shift: upper band is KRas and the bifunctional compound, lower band is KRas alone
Source text: FIGS. 2A and 2B show the result of treating cells with either a bifunctional compound alone or a bifunctional compound and an E3 ubiquitin ligase inhibitor, and then detecting the KRas protein on the gel. The mobility shift of KRas detection on the gel illustrates that the bifunctional compounds covalently modify KRas. The upper band is KRas and the bifunctional compound, while the lower band is KRas alone.

Compound: CCC(=O)N1CCN(c2nc(NCCC(=O)N(C)CCOCCOCCOCCOCC(=O)N[C@H](C(=O)N3C[C@H](O)C[C@H]3C(=O)N[C@@H](C)c3ccc(-c4scnc4C)cc3)C(C)(C)C)nc3c(F)c(-c4cc(O)cc5ccccc45)c(Cl)cc23)CC1 [compound 6, (2S,4R)-1-((2S)-2-(tert-butyl)-21-((6-chloro-8-fluoro-7-(3-hydroxynaphthalen-1-yl)-4-(4-propionylpiperazin-1-yl)quinazolin-2-yl)amino)-18-methyl-4,19-dioxo-6,9,12,15-tetraoxa-3,18-diazahenicosanoyl)-4-hydroxy-N-((S)-1-(4-(4-methylthiazol-5-yl)phenyl)ethyl) pyrrolidine-2-carboxamide]
H2030 Degradation at 0.3 uM (KRas [1]): C (C < 25)
H2030 Degradation at 1 uM (KRas [1]): C (C < 25)
H2030 Degradation at 3 uM (KRas [1]): C (C < 25)

Compound: CCC(=O)N1CCN(c2nc(NCCC(=O)N(C)CCOCCOCCOCCOCCOCC(=O)N[C@H](C(=O)N3C[C@H](O)C[C@H]3C(=O)N[C@@H](C)c3ccc(-c4scnc4C)cc3)C(C)(C)C)nc3c(F)c(-c4cc(O)cc5ccccc45)c(Cl)cc23)CC1 [compound 7, (2S,4R)-1-((2S)-2-(tert-butyl)-24-((6-chloro-8-fluoro-7-(3-hydroxynaphthalen-1-yl)-4-(4-propionylpiperazin-1-yl)quinazolin-2-yl)amino)-21-methyl-4,22-dioxo-6,9,12,15,18-pentaoxa-3,21-diazatetracosanoyl)-4-hydroxy-N-((1S)-1-(4-(4-methyl-5H-114-thiazol-5-yl)phenyl)ethyl) pyrrolidine-2-carboxamide]
H2030 Degradation at 0.3 uM (KRas [1]): C (C < 25)
H2030 Degradation at 1 uM (KRas [1]): C (C < 25)
H2030 Degradation at 3 uM (KRas [1]): C (C < 25)

Compound: CCC(=O)N1CCN(c2nc(NCCC(=O)N(C)CCOCCOCCOCCNc3cccc4c3C(=O)N(C3CCC(=O)NC3=O)C4=O)nc3c(F)c(-c4cc(O)cc5ccccc45)c(Cl)cc23)CC1 (stereo not drawn) [compound 8, 3-((6-chloro-8-fluoro-7-(3-hydroxynaphthalen-1-yl)-4-(4-propionylpiperazin-1-yl)quinazolin-2-yl)amino)-N-(2-(2-(2-(2-((2-(2,6-dioxopiperidin-3-yl)-1,3-dioxoisoindolin-4-yl)amino)ethoxy)ethoxy)ethoxy)ethyl)-N-methylpropanamide]
H2030 Degradation at 0.3 uM (KRas [1]): C (C < 25)
H2030 Degradation at 1 uM (KRas [1]): C (C < 25)
H2030 Degradation at 3 uM (KRas [1]): C (C < 25)

Compound: CCC(=O)N1CCN(c2nc(NCCC(=O)N(C)CCOCCOCCOCC(=O)N[C@H](C(=O)N3C[C@H](O)C[C@H]3C(=O)N[C@@H](C)c3ccc(-c4scnc4C)cc3)C(C)(C)C)nc3c(F)c(-c4cc(O)cc5ccccc45)c(Cl)cc23)CC1 [compound 9, (2S,4R)-1-((S)-2-(tert-butyl)-18-((6-chloro-8-fluoro-7-(3-hydroxynaphthalen-1-yl)-4-(4-propionylpiperazin-1-yl)-5H-312-quinazolin-2-yl)amino)-15-methyl-4,16-dioxo-6,9,12-trioxa-3,15-diazaoctadecanoyl)-4-hydroxy-N-((S)-1-(4-(4-methyl-312-thiazol-5-yl)phenyl)ethyl) pyrrolidine-2-carboxamide]
H2030 Degradation at 0.3 uM (KRas [1]): C (C < 25)
H2030 Degradation at 1 uM (KRas [1]): C (C < 25)
H2030 Degradation at 3 uM (KRas [1]): C (C < 25)

The remaining lines, values ahead:

H2030 Degradation at 0.3 uM (KRas [1]): C (C < 25)
H2030 Degradation at 1 uM (KRas [1]): C (C < 25)
H2030 Degradation at 3 uM (KRas [1]): C (C < 25)
Compound: CCC(=O)N1CCN(c2nc(NCCC(=O)N(C)CCOCCOCCOCCOCCOc3ccc4c(c3)CN(C3CCC(=O)NC3=O)C4=O)nc3c(F)c(-c4cc(O)cc5ccccc45)c(Cl)cc23)CC1 (stereo not drawn) [compound 10, 3-((6-chloro-8-fluoro-7-(3-hydroxynaphthalen-1-yl)-4-(4-propionylpiperazin-1-yl)quinazolin-2-yl)amino)-N-(14-((2-(2,6-dioxopiperidin-3-yl)-1-oxoisoindolin-5-yl)oxy)-3,6,9,12-tetraoxatetradecyl)-N-methylpropanamide]

DC50 (KRas [2]; SW1573): < 100 nM
Dmax (KRas [2]; SW1573): 35 to 70%
Percent Degradation at Indicated Concentration (μM) (KRas [2]; SW1573, 0.03 μM): C (Percent Degradation: C ≤ 35)
Percent Degradation at Indicated Concentration (μM) (KRas [2]; SW1573, 0.1 μM): B (35 < B < 70)
Percent Degradation at Indicated Concentration (μM) (KRas [2]; SW1573, 0.3 μM): B (35 < B < 70)
Percent Degradation at Indicated Concentration (μM) (KRas [2]; SW1573, 1 μM): B (35 < B < 70)
Percent Degradation at Indicated Concentration (μM) (KRas [2]; SW1573, 3 μM): B (35 < B < 70)
Percent Degradation at Indicated Concentration (μM) (KRas [2]; SW1573, 10 μM): C (Percent Degradation: C ≤ 35)
covalent modification of KRas^G12C, as seen by the gel shift (KRas^G12C [3]): covalently modify KRas^G12C
degrader potency shown by Western blot (KRas^G12C [3]): potent degrader
DC50 (KRas [4]; H2030): ≥ 1000 nM
Percent Degradation at Indicated Concentration (μM) (KRas [4]; H2030, 0.03 μM): C (Percent Degradation: C ≤ 35)
Percent Degradation at Indicated Concentration (μM) (KRas [4]; H2030, 0.1 μM): C (Percent Degradation: C ≤ 35)
Percent Degradation at Indicated Concentration (μM) (KRas [4]; H2030, 0.3 μM): C (Percent Degradation: C ≤ 35)
Percent Degradation at Indicated Concentration (μM) (KRas [4]; H2030, 1 μM): C (Percent Degradation: C ≤ 35)
Percent Degradation at Indicated Concentration (μM) (KRas [4]; H2030, 3 μM): B (35 < B < 70)
Percent Degradation at Indicated Concentration (μM) (KRas [4]; H2030, 10 μM): C (Percent Degradation: C ≤ 35)
Dmax (KRas [4]; NCI-H2030): 35 to 70%
KRas degrader activity (representative Western blot) (KRas^G12C [5]): potent degrader
covalent modification of KRas seen by gel shift (KRas^G12C [5]): covalently modify KRas^G12C
Compound: C=CC(=O)N1CCN(c2nc(O[C@H](C)CN3CCC(OCCOCCOCC(=O)N[C@H](C(=O)N4C[C@H](O)C[C@H]4C(=O)N[C@@H](C)c4ccc(-c5scnc5C)cc4)C(C)(C)C)CC3)nc3c(F)c(-c4cc(O)cc5ccccc45)c(Cl)cc23)CC1 [compound 399, (2S,4R)-1-((2S)-2-(2-(2-(2-((1-((2R)-2-((4-(4-acryloylpiperazin-1-yl)-6-chloro-8-fluoro-7-(3-hydroxynaphthalen-1-yl)quinazolin-2-yl)oxy)propyl)piperidin-4-yl)oxy)ethoxy)ethoxy)acetamido)-3,3-dimethylbutanoyl)-4-hydroxy-N-((S)-1-(4-(4-methylthiazol-5-yl)phenyl)ethyl)pyrrolidine-2-carboxamide]

Percent Degradation at Indicated Concentration (μM) (KRas [2]; SW1573 cells, 0.1 μM): C (Percent Degradation: C ≤ 35)
Percent Degradation at Indicated Concentration (μM) (KRas [2]; SW1573 cells, 0.3 μM): C (Percent Degradation: C ≤ 35)
Percent Degradation at Indicated Concentration (μM) (KRas [2]; SW1573 cells, 1 μM): C (Percent Degradation: C ≤ 35)
covalent modification of KRas^G12C, as seen by the gel shift (KRas^G12C [3]): covalently modify KRas^G12C
degrader potency shown by Western blot (KRas^G12C [3]): less potent degrader
KRas degrader activity (representative Western blot) (KRas^G12C [5]): less active degrader
covalent modification of KRas seen by gel shift (KRas^G12C [5]): covalently modify KRas^G12C
Compound: C=CC(=O)N1CCN(c2nc(O[C@H](C)CN3CCN(CC4CCN(c5ccc6c(c5)C(=O)N(C5CCC(=O)NC5=O)C6=O)CC4)CC3)nc3c(F)c(-c4cc(O)cc5ccccc45)c(Cl)cc23)CC1 (stereo partly drawn) [compound 432, 5-(4-((4-((2R)-2-((4-(4-acryloylpiperazin-1-yl)-6-chloro-8-fluoro-7-(3-hydroxynaphthalen-1-yl)quinazolin-2-yl)oxy)propyl)piperazin-1-yl)methyl)piperidin-1-yl)-2-(2,6-dioxopiperidin-3-yl)isoindoline-1,3-dione]
